From publication PMC3049593 (British Journal of Cancer, 2011)

What was measured:
B16 = assay: in vitro cytotoxicity (LC50); assay type: cell-based; details: read-out: LC50 (concentration lethal to 50% of cells)
[1] = plasma pharmacokinetics of PG545 (LC-MS/MS) in LL/2 tumour-bearing mice; assay type: in vivo; details: for AUC0−t / Cmax / Tmax / t½: plasma
Description: (Applied Biosystems) preceded by a Spark Symbiosis Direct On-line Solid Phase Extraction system. Briefly, using a deep-well 96-well plate, 100 µL plasma was mixed with 10 µL standard solution (or water for unknowns) plus 10 µL internal standard solution (PG562 at 100 µg/mL (deionised water for double blank)).This was then mixed for at least 1 min (Ratek Platform Shaker) and incubated at room temperature for 20 mins prior to addition of 25 µL SDS solution (10 mg SDS in 1 mL deionised water) + 75 µL CHAPS solution (50 mg CHAPS in 1 mL deionised water) and 50 µL Proteinase K solution (10 mg Proteinase K in 1 mL 5 mM CaCl2). Following a mixing step this was incubated at 37°C for 2.5 hours prior to addition of 250 µL deionised water and placed into the Spark Symbiosis system.
The Tmax and Cmax on each sampling day were determined for each dose level by visual inspection of the mean data. The AUC0-t was calculated using the trapezoidal method and the plasma concentration t½ was estimated based on linear regression of the natural log of the plasma concentration that constituted the terminal phase of the concentration-time

[2] = body weight loss in tumour-bearing mice; assay type: in vivo; details: for body weight loss at the end of the study: MDA-MB-231 model
[3] = tested on: FGF2-induced vascularisation of AngioSponge; assay: AngioSponge in vivo angiogenesis model (CD31/PECAM-1 staining); set-up: species or system mice; details: s.c. daily or twice-weekly, 10 days
Description: Angiogenesis in vivo was evaluated using the Angiosponge model in which subcutaneously implanted, agarose-captured FGF2 gelfoam sterile sponges (Pfizer, West Ryde, Australia) induces vascularisation over a 10-day period responsive to angiogenesis inhibition as determined by the number of vessels with identifiable lumen that stained positive for CD31/PECAM-1, an antigen present specifically on endothelial cells ([McCarty et al, 2002]). PG545 was administered s.c. on the flank distal to the AngioSponge implant. This method was also used to examine five medium-sized primary tumours from each group of Lewis Lung Carcinoma (LL/2)-bearing mice.
Cell lines, cell culture, reagents and compounds
Tumour cell lines were cultured in RPMI1640 or DMEM cell culture medium (Invitrogen, Mt Waverley, Australia), 10% foetal bovine serum (Invitrogen or Hyclone/Quantum Scientific), 100 IU/mL penicillin (Invitrogen), 100 µ g/mL streptomycin (Invitrogen or Sigma-Aldrich, Castle Hill, Australia). […]
staining. For quantification, three independent visual fields (20x magnification) were chosen and positive stained spots or vessels with identifiable lumen were counted.
Angiogenesis inhibition and induction were calculated using the equations: […]

Structure (SMILES): CC(C)CCC[C@@H](C)[C@H]1CCC2C3CCC4C[C@@H](O[C@@H]5O[C@H](COS(=O)(=O)[O-])[C@@H](O[C@H]6O[C@H](COS(=O)(=O)[O-])[C@@H](O[C@H]7O[C@H](COS(=O)(=O)[O-])[C@@H](O[C@H]8O[C@H](COS(=O)(=O)[O-])[C@@H](OS(=O)(=O)[O-])[C@H](OS(=O)(=O)[O-])[C@H]8OS(=O)(=O)[O-])[C@H](OS(=O)(=O)[O-])[C@H]7OS(=O)(=O)[O-])[C@H](OS(=O)(=O)[O-])[C@H]6OS(=O)(=O)[O-])[C@H](OS(=O)(=O)[O-])[C@H]5OS(=O)(=O)[O-])CC[C@]4(C)C3CC[C@@]21C.[Na+].[Na+].[Na+].[Na+].[Na+].[Na+].[Na+].[Na+].[Na+].[Na+].[Na+].[Na+].[Na+] (some centres unmarked) [PG545]
- CC50 (B16): > 200 µM
- start of efficacious plasma concentration range ([1]; LL/2 model): ~20 µg/mL
- AUC0−t ([1]; week 1, 20 mg kg^−1): 687 µg·h/mL
- Cmax ([1]; week 1, 20 mg kg^−1): 23 µg/mL
- Tmax ([1]; week 1, 20 mg kg^−1): 5 h
- t½ ([1]; week 1, 20 mg kg^−1): 38 h
- AUC0−t ([1]; week 1, 40 mg kg^−1): 1713 µg·h/mL
- Cmax ([1]; week 1, 40 mg kg^−1): 55 µg/mL
- Tmax ([1]; week 1, 40 mg kg^−1): 3 h
- t½ ([1]; week 1, 40 mg kg^−1): 32 h
- AUC0−t ([1]; week 1, 60 mg kg^−1): 2666 µg·h/mL
- Cmax ([1]; week 1, 60 mg kg^−1): 79 µg/mL
- Tmax ([1]; week 1, 60 mg kg^−1): 5 h
- t½ ([1]; week 1, 60 mg kg^−1): 39 h
- AUC0−t ([1]; week 2, 20 mg kg^−1): 663 µg·h/mL
- Cmax ([1]; week 2, 20 mg kg^−1): 27 µg/mL
- Tmax ([1]; week 2, 20 mg kg^−1): 4 h
- t½ ([1]; week 2, 20 mg kg^−1): 31 h
- AUC0−t ([1]; week 2, 40 mg kg^−1): 1781 µg·h/mL
- Cmax ([1]; week 2, 40 mg kg^−1): 71 µg/mL
- Tmax ([1]; week 2, 40 mg kg^−1): 4 h
- t½ ([1]; week 2, 40 mg kg^−1): 28 h
- AUC0−t ([1]; week 2, 60 mg kg^−1): 3056 µg·h/mL
- Cmax ([1]; week 2, 60 mg kg^−1): 94 µg/mL
- Tmax ([1]; week 2, 60 mg kg^−1): 4 h
- t½ ([1]; week 2, 60 mg kg^−1): 35 h
- body weight loss nadir ([2]; B16 model): 8%
- body weight loss nadir ([2]; HT-29 model): 12%
- body weight loss ([2]; Hep3b2.1-7 model, 20 mg kg^−1 followed by twice-weekly 10 mg kg^−1): 4%
- body weight loss ([2]; Hep3b2.1-7 model, 20 mg kg^−1 twice-weekly): 9%
- body weight nadir (loss) ([2]; LL/2 model): 5%
- body weight loss at the end of the study ([2]; 20 mg kg^−1 once-weekly): 4%
- body weight loss at the end of the study ([2]; 20 mg kg^−1 twice-weekly): 6%
- body weight loss at the end of the study ([2]; 30 mg kg^−1 once-weekly): 11%
- body weight loss at the end of the study ([2]; 30 mg kg^−1 twice-weekly): 10%
- body weight loss ([2]; PC3 model, 20 mg kg^−1 once-weekly): 6%
- body weight loss ([2]; PC3 model, 20 mg kg^−1 twice-weekly): 16%
- inhibition of CD31 staining [3]: Significant inhibition of CD31 staining
